Measured values taken from the kinase profiling compilation of Christmann-Franck et al. (2016).

Tests used:
Test in all cases: KINOMEscan competition binding
Details in all cases: compound 10.0 µM
[1] = target: DYRK2 (human) (UniProt Q92630)
[2] = target: PRPF4B (human) (UniProt Q13523)
[3] = target: KDR (human) (UniProt P35968)
[4] = target: ZAP70 (human) (UniProt P43403)
[5] = target: TIE1 (human) (UniProt P35590)
[6] = target: SRPK1 (human) (UniProt Q96SB4)
[7] = target: RPS6KA1 KD1 (human) (UniProt Q15418)
[8] = target: PIK3CG (human) (UniProt P48736)
[9] = target: MAP4K4 (human) (UniProt O95819)
[10] = target: LATS2 (human) (UniProt Q9NRM7)
[11] = target: NEK9 (human) (UniProt Q8TD19)
[12] = target: CAMK2B (human) (UniProt Q13554)
[13] = target: EPHA6 (human) (UniProt Q9UF33)
[14] = target: PIM3 (human) (UniProt Q86V86)
[15] = target: ERBB2 (human) (UniProt P04626)
[16] = target: RPS6KA5 KD2 (human) (UniProt O75582)
[17] = target: CSNK1G2 (human) (UniProt P78368)
[18] = target: CDK9 (human) (UniProt P50750)
Chain of CDK9 (human) (P50750 whole entry, looked up): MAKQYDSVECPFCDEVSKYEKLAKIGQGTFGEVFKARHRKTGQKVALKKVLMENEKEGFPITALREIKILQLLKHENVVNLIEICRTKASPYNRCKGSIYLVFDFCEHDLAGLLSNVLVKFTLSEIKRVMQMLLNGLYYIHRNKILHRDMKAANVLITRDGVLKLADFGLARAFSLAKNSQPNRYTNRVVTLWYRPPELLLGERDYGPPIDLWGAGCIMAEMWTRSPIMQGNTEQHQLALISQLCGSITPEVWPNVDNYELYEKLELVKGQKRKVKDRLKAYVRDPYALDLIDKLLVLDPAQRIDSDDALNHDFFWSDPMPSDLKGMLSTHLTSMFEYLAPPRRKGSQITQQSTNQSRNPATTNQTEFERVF

[19] = target: FER (human) (UniProt P16591)
[20] = target: CSNK1E (human) (UniProt P49674)
Chain of CSNK1E (human) (P49674 whole entry, looked up): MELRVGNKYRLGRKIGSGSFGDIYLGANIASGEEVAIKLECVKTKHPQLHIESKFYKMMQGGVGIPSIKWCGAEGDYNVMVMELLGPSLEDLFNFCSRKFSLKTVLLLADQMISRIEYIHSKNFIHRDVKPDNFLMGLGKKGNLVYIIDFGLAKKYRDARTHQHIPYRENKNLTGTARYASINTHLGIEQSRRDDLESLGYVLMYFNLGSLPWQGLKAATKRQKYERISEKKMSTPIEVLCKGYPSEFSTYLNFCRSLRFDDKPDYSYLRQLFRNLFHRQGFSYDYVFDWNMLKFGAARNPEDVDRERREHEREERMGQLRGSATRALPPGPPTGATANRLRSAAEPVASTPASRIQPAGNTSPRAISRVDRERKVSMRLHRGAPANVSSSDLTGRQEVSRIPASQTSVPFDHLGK

[21] = target: CSF1R (human) (UniProt P07333)
Chain of CSF1R (human) (P07333 whole entry, looked up): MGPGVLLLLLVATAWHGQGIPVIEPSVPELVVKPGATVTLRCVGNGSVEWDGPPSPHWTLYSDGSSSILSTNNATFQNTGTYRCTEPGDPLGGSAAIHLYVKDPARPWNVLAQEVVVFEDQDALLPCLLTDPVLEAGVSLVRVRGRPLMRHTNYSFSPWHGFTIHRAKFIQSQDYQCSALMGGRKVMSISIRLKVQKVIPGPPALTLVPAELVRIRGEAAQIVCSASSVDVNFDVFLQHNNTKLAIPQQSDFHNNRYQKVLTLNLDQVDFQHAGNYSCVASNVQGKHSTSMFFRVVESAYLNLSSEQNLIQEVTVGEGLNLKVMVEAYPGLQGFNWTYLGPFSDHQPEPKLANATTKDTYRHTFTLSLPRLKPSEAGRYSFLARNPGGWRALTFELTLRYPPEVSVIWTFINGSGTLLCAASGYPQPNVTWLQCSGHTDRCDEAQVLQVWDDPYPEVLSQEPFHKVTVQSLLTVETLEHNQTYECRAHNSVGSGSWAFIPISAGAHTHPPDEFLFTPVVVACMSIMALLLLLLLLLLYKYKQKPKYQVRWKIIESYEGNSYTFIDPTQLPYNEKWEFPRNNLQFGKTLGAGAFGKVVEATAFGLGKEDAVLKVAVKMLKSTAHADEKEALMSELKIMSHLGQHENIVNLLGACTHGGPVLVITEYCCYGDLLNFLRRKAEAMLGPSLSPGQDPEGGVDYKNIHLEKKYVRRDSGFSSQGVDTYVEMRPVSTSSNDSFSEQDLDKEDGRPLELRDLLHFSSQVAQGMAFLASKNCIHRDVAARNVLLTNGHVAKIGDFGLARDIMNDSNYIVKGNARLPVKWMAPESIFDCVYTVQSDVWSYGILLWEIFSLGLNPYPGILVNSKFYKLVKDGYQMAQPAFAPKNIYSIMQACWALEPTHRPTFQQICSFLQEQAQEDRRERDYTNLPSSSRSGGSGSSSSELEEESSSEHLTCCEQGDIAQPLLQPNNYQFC

[22] = target: STK25 (human) (UniProt O00506)
[23] = target: RIOK2 (human) (UniProt Q9BVS4)
[24] = target: ADCK4 (human) (UniProt Q96D53)
[25] = target: TNK1 (human) (UniProt Q13470)
[26] = target: BRSK1 (human) (UniProt Q8TDC3)
[27] = target: AKT2 (human) (UniProt P31751)
Chain of AKT2 (human) (P31751 whole entry, looked up): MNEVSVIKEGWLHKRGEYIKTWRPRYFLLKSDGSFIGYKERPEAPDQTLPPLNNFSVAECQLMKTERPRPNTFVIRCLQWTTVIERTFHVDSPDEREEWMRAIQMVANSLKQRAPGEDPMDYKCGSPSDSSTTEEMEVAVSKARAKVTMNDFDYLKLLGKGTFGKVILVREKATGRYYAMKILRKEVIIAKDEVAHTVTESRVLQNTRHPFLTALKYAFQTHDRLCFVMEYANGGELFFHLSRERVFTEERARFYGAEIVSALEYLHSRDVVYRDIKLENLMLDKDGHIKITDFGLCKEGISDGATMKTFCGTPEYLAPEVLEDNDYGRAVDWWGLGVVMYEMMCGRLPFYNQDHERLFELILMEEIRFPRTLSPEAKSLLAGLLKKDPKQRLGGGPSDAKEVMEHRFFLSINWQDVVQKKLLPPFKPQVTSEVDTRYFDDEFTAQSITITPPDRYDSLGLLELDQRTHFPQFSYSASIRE

[28] = target: MINK1 (human) (UniProt Q8N4C8)
[29] = target: PKN2 (human) (UniProt Q16513)
[30] = target: SIK2 (human) (UniProt Q9H0K1)
Chain of SIK2 (human) (Q9H0K1 whole entry, looked up): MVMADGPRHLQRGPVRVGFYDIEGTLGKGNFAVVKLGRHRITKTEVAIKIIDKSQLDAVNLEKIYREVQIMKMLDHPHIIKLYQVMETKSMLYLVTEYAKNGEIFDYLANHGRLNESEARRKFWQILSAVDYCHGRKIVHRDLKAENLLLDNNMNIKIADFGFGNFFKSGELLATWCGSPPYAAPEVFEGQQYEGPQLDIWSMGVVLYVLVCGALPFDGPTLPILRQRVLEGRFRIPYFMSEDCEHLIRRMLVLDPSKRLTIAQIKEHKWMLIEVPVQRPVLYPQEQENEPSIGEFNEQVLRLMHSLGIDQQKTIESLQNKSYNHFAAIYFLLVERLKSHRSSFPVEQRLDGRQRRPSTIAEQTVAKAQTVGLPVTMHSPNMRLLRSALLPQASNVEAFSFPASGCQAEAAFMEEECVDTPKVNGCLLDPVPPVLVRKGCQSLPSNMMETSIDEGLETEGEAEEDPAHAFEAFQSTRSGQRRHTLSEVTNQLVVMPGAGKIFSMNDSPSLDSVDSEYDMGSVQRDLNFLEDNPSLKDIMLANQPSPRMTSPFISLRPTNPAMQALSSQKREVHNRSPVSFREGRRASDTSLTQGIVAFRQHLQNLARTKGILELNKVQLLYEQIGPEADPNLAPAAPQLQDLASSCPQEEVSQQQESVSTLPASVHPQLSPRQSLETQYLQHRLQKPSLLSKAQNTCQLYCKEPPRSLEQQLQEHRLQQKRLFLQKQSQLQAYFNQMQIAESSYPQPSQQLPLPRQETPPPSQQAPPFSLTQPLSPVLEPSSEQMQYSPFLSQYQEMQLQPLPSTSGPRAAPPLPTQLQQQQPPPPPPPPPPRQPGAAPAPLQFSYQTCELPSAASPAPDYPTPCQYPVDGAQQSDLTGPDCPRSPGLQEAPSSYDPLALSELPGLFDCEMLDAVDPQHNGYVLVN

[31] = target: SLK (human) (UniProt Q9H2G2)
Chain of SLK (human) (Q9H2G2 whole entry, looked up): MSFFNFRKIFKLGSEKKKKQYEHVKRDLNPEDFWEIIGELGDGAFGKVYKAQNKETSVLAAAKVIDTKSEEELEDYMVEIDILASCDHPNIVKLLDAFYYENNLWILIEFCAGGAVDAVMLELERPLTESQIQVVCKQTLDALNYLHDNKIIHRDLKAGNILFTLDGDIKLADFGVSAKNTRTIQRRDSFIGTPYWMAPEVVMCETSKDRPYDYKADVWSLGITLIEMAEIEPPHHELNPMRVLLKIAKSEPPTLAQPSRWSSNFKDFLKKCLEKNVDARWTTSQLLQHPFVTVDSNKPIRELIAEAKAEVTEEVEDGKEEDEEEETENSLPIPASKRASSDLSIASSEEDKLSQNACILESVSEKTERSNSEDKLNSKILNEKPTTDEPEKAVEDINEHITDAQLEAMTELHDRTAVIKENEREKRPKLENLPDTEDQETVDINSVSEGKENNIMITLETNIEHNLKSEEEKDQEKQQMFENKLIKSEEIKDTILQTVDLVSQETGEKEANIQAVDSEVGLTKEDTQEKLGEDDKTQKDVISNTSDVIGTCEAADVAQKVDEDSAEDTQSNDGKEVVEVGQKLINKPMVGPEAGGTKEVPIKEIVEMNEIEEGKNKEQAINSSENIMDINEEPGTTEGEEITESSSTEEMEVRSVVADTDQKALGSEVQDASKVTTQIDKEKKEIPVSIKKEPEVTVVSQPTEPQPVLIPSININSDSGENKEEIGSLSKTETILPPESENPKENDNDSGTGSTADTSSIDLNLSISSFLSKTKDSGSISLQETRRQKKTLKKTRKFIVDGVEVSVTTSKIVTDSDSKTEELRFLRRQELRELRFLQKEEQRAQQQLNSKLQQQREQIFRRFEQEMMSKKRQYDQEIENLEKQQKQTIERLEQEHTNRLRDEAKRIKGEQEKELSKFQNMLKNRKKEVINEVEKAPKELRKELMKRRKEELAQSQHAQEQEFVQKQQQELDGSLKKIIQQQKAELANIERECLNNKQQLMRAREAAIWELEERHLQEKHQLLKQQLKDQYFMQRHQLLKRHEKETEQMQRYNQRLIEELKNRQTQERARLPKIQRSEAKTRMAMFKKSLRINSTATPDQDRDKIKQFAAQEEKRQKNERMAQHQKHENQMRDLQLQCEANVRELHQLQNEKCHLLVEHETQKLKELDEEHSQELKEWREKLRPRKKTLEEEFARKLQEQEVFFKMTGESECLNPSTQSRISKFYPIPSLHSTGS

[32] = target: EPHB4 (human) (UniProt P54760)
[33] = target: NIM1 (human) (UniProt Q8IY84)
[34] = target: STK32C (human) (UniProt Q86UX6)
[35] = target: CDKL2 (human) (UniProt Q92772)
[36] = target: OXSR1 (human) (UniProt O95747)
[37] = target: PIK3C2G (human) (UniProt O75747)
[38] = target: STK32A (human) (UniProt Q8WU08)
[39] = target: SNRK (human) (UniProt Q9NRH2)
[40] = target: PIP4K2C (human) (UniProt Q8TBX8)

Compound	kinase still bound, per cent of control [2] [%]	kinase still bound, per cent of control [4] [%]	kinase still bound, per cent of control [5] [%]	kinase still bound, per cent of control [6] [%]	kinase still bound, per cent of control [7] [%]	kinase still bound, per cent of control [8] [%]	kinase still bound, per cent of control [10] [%]	kinase still bound, per cent of control [11] [%]	kinase still bound, per cent of control [13] [%]	kinase still bound, per cent of control [14] [%]	kinase still bound, per cent of control [15] [%]	kinase still bound, per cent of control [16] [%]	kinase still bound, per cent of control [18] [%]	kinase still bound, per cent of control [19] [%]	kinase still bound, per cent of control [20] [%]	kinase still bound, per cent of control [22] [%]	kinase still bound, per cent of control [23] [%]	kinase still bound, per cent of control [24] [%]	kinase still bound, per cent of control [25] [%]	kinase still bound, per cent of control [26] [%]	other results
Cc1cn(-c2cc(C(=O)Nc3ccc(C)c(NC(=O)c4ccno4)c3)cc(C(F)(F)F)c2)cn1	100	100	100	100	100	100	100	100	100	100	100	100	100	100	100	100	100	100	100	100	kinase still bound, per cent of control [1]: 100%; kinase still bound, per cent of control [3]: 100%; kinase still bound, per cent of control [9]: 100%; kinase still bound, per cent of control [12]: 100%; kinase still bound, per cent of control [17]: 100%; kinase still bound, per cent of control [21]: 0.2%; kinase still bound, per cent of control [27]: 100%; kinase still bound, per cent of control [28]: 100%; kinase still bound, per cent of control [29]: 100%; kinase still bound, per cent of control [30]: 100%; kinase still bound, per cent of control [31]: 100%; kinase still bound, per cent of control [32]: 15%; kinase still bound, per cent of control [33]: 100%; kinase still bound, per cent of control [34]: 100%; kinase still bound, per cent of control [35]: 100%; kinase still bound, per cent of control [36]: 100%; kinase still bound, per cent of control [37]: 100%
CCCS(=O)(=O)Nc1ccc(F)c(C(=O)c2c[nH]c3ncc(Cl)cc23)c1F	82	85	61	100	71	83	86	66	100	65	78	86	86	58	60	53	3	100	96	55	kinase still bound, per cent of control [9]: 64%; kinase still bound, per cent of control [12]: 63%; kinase still bound, per cent of control [38]: 85%; kinase still bound, per cent of control [27]: 68%; kinase still bound, per cent of control [28]: 28%; kinase still bound, per cent of control [29]: 100%; kinase still bound, per cent of control [30]: 84%; kinase still bound, per cent of control [39]: 100%; kinase still bound, per cent of control [31]: 15%; kinase still bound, per cent of control [32]: 100%; kinase still bound, per cent of control [33]: 92%; kinase still bound, per cent of control [34]: 86%; kinase still bound, per cent of control [35]: 49%; kinase still bound, per cent of control [36]: 24%; kinase still bound, per cent of control [37]: 55%; kinase still bound, per cent of control [40]: 100%
CCOc1cc(N2CCC(O)CC2)ccc1Nc1ncc2c(n1)N(C)c1ccccc1C(=O)N2C	100	100	100	100	100	100	100	100	100	100	100	100	100	100	100	100	100	100	7.8	100	kinase still bound, per cent of control [1]: 100%; kinase still bound, per cent of control [3]: 100%; kinase still bound, per cent of control [9]: 100%; kinase still bound, per cent of control [12]: 100%; kinase still bound, per cent of control [17]: 100%; kinase still bound, per cent of control [21]: 100%; kinase still bound, per cent of control [27]: 100%; kinase still bound, per cent of control [28]: 100%; kinase still bound, per cent of control [29]: 100%; kinase still bound, per cent of control [30]: 100%; kinase still bound, per cent of control [31]: 100%; kinase still bound, per cent of control [32]: 100%; kinase still bound, per cent of control [33]: 100%; kinase still bound, per cent of control [34]: 100%; kinase still bound, per cent of control [35]: 100%; kinase still bound, per cent of control [36]: 100%; kinase still bound, per cent of control [37]: 100%
CCc1nc(-c2cccc(C)c2)c(-c2ccnc(NC(=O)c3ccccc3)c2)s1	80	100	96	100	89	100	90	100	47	86	43	100	95	60	0.05	84	92	2.2	88	93	kinase still bound, per cent of control [1]: 99%; kinase still bound, per cent of control [3]: 38%; kinase still bound, per cent of control [17]: 19%; kinase still bound, per cent of control [21]: 76%; kinase still bound, per cent of control [38]: 9%; kinase still bound, per cent of control [27]: 80%; kinase still bound, per cent of control [28]: 8.4%; kinase still bound, per cent of control [29]: 76%; kinase still bound, per cent of control [30]: 62%; kinase still bound, per cent of control [39]: 100%; kinase still bound, per cent of control [31]: 41%; kinase still bound, per cent of control [32]: 53%; kinase still bound, per cent of control [33]: 100%; kinase still bound, per cent of control [34]: 35%; kinase still bound, per cent of control [35]: 80%; kinase still bound, per cent of control [36]: 100%; kinase still bound, per cent of control [37]: 40%
